Values of other authors, collected in US8765195B2, “Methods and compositions for increasing sex steroids and growth hormones” (Quality IP Holdings, Inc., priority 2012, dated 2014).

What was measured:
hGH = details: for effect on hGH: other amino acids, literature
[1] = subcutaneous injection of 0.06 IU, GH deficient subjects

Compound	effect on hGH (hGH)	also measured
N=C(N)NCCC[C@H](N)C(=O)O [arginine]	–	elevation of serum hGH levels (hGH; 30 g, males): 8.6 fold; increase of hGH levels (hGH; intravenous infusion of 183 mg/kg body weight, females): > 20 fold
N[C@@H](Cc1c[nH]cn1)C(=O)O [histidine]	marked increases in hGH	–
NCCCC[C@H](N)C(=O)O [lysine]	marked increases in hGH	–
CSCC[C@H](N)C(=O)O [methionine]	marked increases in hGH	–
NCCC[C@H](N)C(=O)O [ornithine]	marked increases in hGH	–
N[C@@H](Cc1ccccc1)C(=O)O [phenylalanine]	marked increases in hGH	–
HGH: human growth hormone given by subcutaneous injection to GH deficient subjects	–	mean levels of GH reached [1]: 0.4 ng/mL
